Values quoted from earlier work as cited in patent US12263175B2, “Optimised dosage of diaminophenothiazines in populations” (WisTa Laboratories Ltd., priority 2018, dated 2025).

Experiments:
[1] = system: TDP-43 aggregates in SH-SY5Y cells; conditions: 0.05 μM MT; cited from earlier work
[2] = system: huntingtin derivative containing a polyglutamine stretch of 102 residues; conditions: zebrafish; tested at 0, 10 and 100 μM; cited from earlier work
[3] = phase 2 study, cited from earlier work

Row | Structure (SMILES) | Reduction of the number of TDP-43 aggregates [1] [%] | Formation of aggregates of huntingtin derivative (polyglutamine stretch of 102 residues) [2] | Efficacy at higher dose ([3]; 218 mg/day) | Minimum safe and effective dose [3] [mg/day]
1 | CN(C)c1ccc2nc3ccc(=[N+](C)C)cc-3sc2c1 [MT, methylthioninium] | 50 | prevented the formation of such aggregates in zebrafish in a dose-dependent manner | – | –
2 | CN(C)c1ccc2nc3ccc(N(C)C)cc3[s+]c2c1.[Cl-] [MTC, methylthioninium chloride] | – | – | limited efficacy | 138
